From patent US20210386367A1, “DEVICES AND SYSTEMS FOR GASTROINTESTINAL MICROBIOME DETECTION AND MANIPULATION” (Progenity, Inc., priority 2018, published 2021)
Converted amounts (≈) assume the structure as drawn.

Experiments:
Type in all cases: cell-based
[1] = tested on: Streptococcus spp. clinical isolates; assay: MIC distribution against clinical isolates; settings: 54 Streptococcus spp. isolates
Excerpt: (n=19 S. pyogenes, n=20 S. agalactiae and n=20 Viridans group Streptococcus) clinical isolates (μg/mL).
(§1) As used herein, “minimum inhibitory concentration” or “MIC” refers to the lowest concentration of an antimicrobial agent, for example, an antimicrobial agent as described herein, required to inhibit the growth of an organism. […] “MIC90” represents the MIC value at which ≥90% of the strains within a test population are inhibited; the 90th percentile.
(§2) Many susceptibility testing methods are known in the art and can be used as described herein (see, e.g., Jorgensen and Ferraro (2009) Clinical Infectious Diseases 49:1749-1755; and Maurer et al. (2017) Infectious Disease Reports 9:6839; the entire contents of each of the foregoing are incorporated herein by reference). For example, antimicrobial susceptibility can be determined using conventional culture based methods such as the broth or agar dilution test. In these dilution tests, the bacterial isolate of interest is inoculated onto different media that include serial dilutions of an antimicrobial agent, and incubated under appropriate conditions (e.g., overnight at 37° C.) to allow for growth to occur. Following the incubation period, the media is examined to determine bacterial growth. The lowest concentration of antibiotic that prevents growth represents the minimal inhibitory concentration (MIC). Broth dilution tests can be miniaturized and mechanized allowing for reproducibility and high throughput.

[2] = tested on: Streptococcus pyogenes clinical isolates; assay: MIC distribution against clinical isolates; settings: 19 S. pyogenes isolates
Excerpt: as §1, §2

[3] = tested on: Viridans group Streptococci clinical isolates; assay: MIC distribution against clinical isolates; settings: 15 Viridans group Streptococci isolates
Excerpt: as §1, §2

[4] = tested on: Enterococcus faecalis; assay: Broth microdilution MIC, 50 clinical isolates
Summary of the method: (§3)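 Medium: cation-adjusted MHB, plus 3% lysed horse blood for streptococci, which were incubated with CO2 planchets. Final inoculum approx. 5×10^5 CFU/mL; serial two-fold drug dilutions per CLSI.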

[5] = tested on: Staphylococcus aureus; assay: Broth microdilution MIC, 50 clinical isolates (28 MRSA)
Summary of the method: as §3

[6] = tested on: Streptococcus spp.; assay: Broth microdilution MIC, 54 clinical isolates; settings: 54 Streptococcus spp. clinical isolates
Protocol: (§4) Minimal inhibitory concentration (MIC) values were determined by broth microdilution or agar dilution in accordance with guidelines from the Clinical and Laboratory Standards Institute (CLSI; (1) “Methods for Dilution Antimicrobial Susceptibility Tests for Bacteria That Grow Aerobically; Approved Standard; 11th ed.” CLSI standard M07-A11, 2018; (2) “Performance Standards for Antimicrobial Susceptibility Testing; Twenty-Eighth Informational Supplement,” CLSI document M100-S28, 2018; and (3) “Methods for Antimicrobial Susceptibility Testing of Anaerobic Bacteria; Approved Standard—Eighth Edition,” CLSI document M11-A8, 2012).
(§5) Tested aerobically by broth microdilution: • Escherichia coli, n=50 • Klebsiella spp., n=50 • Pseudomonas aeruginosa, n=50 • Streptococcus spp., n=50 • Staphylococcus aureus, n=50 • Enterococcus faecalis, n=50 • Enterobacter aerogenes, n=50 • Proteus mirabilis, n=50
(§6) Broth microdilution testing of aerobic bacteria was conducted in cation-adjusted Mueller Hinton broth (MHBII). For testing streptococci, lysed horse blood (LHB) was added to MHBII broth at a final concentration of 3%. Where LHB was used, it was added after filtering.
(§7) Broth microdilution susceptibility testing in 96-well microplates was conducted in accordance with CLSI methods (1) and (2). Automated liquid handlers were used to conduct serial dilutions and liquid transfers, including the Multidrop 384 (Labsystems, Helsinki, Finland), Biomek 2000, and the Biomek FX (Beckman Coulter, Fullerton, Calif.). All wells in columns 2 through 12 of a standard 96-well microdilution plate (Costar 3795) were filled with 150 μL of the appropriate diluent. Then, 300 μL of the test agents were added to the wells of column 1 of the plates at 100× the highest final concentration to be tested. Serial two-fold dilutions were made across the rows through column 11 using the Biomek 2000. The wells of column 12 contained no drug and served as the growth control wells. This plate served as the “mother plate” from which MIC assay plates or “daughter plates” were made.
(§8) The daughter plates were loaded with 190 μL per well of the appropriate medium using the Multidrop 384. The daughter plates were created using the Biomek FX which transferred 2 μL of drug solution from each well of a mother plate to each corresponding well of the daughter plate in a single step. A standardized inoculum of each test organism was prepared per CLSI methods (1) to equal a 0.5 McFarland standard, followed by a dilution of 1:20 for aerobes and 1:10 for anaerobes. The plates were then inoculated with 10 μL of the diluted inoculum using the Biomek 2000 from low to high drug concentration, resulting in a final concentration of approximately 5×10^5 CFU/mL per well. An un-inoculated plate was incubated in parallel for each medium for the purpose of assessing solubility of the drug in the test media.
(§9) Inoculated plates were stacked 3 or 4 high, covered with a sterile lid on the top plate, placed into boxes with CO2 planchets (streptococci) or plastic bags (all other isolates). Plates were incubated at 35° C. for 16-24 hr in ambient air for aerobes or for 42-48 hr in the anaerobic environment of the Bactron II anaerobe chamber (Sheldon Manufacturing Co.; Cornelius, Oreg.). Following incubation, the microplates were removed from the incubator and viewed from the bottom using a plate viewer. The MIC values were read and recorded as the lowest concentration of drug that inhibited visible growth of the organism as per CLSI methods (1) and (2).

[7] = tested on: Streptococcus agalactiae; assay: Broth microdilution MIC, 20 clinical isolates; settings: 20 Streptococcus agalactiae clinical isolates
Protocol: as §4, §5, §6, §7, §8, §9

[8] = tested on: Viridans group Streptococcus; assay: Broth microdilution MIC, 15 clinical isolates; settings: 15 Viridans group Streptococci clinical isolates
Protocol: as §4, §5, §6, §7, §8, §9

## COc1c(N2C[C@@H]3CCCN[C@@H]3C2)c(F)cc2c(=O)c(C(=O)O)cn(C3CC3)c12 [moxifloxacin]
[1]; MIC 0.06 μg/mL
  Cumulative percentage of isolates inhibited at MIC: 24.1%
  Number of test isolates at MIC: 13
[1]; MIC 0.5 μg/mL
  Cumulative percentage of isolates inhibited at MIC: 90.7%
  Number of test isolates at MIC: 1
[1]; MIC 2 μg/mL
  Cumulative percentage of isolates inhibited at MIC: 94.4%
  Number of test isolates at MIC: 2
[1]; MIC 4 μg/mL
  Cumulative percentage of isolates inhibited at MIC: 98.1%
  Number of test isolates at MIC: 2
[1]; MIC 8 μg/mL
  Cumulative percentage of isolates inhibited at MIC: 100.0%
  Number of test isolates at MIC: 1
[2]; MIC 0.06 μg/mL
  Cumulative percentage of isolates inhibited at MIC: 31.6%
  Number of test isolates at MIC: 6
[2]; MIC 0.5 μg/mL
  Cumulative percentage of isolates inhibited at MIC: 100.0%
  Number of test isolates at MIC: 1
[3]; MIC 0.06 μg/mL
  Cumulative percentage of isolates inhibited at MIC: 26.7%
  Number of test isolates at MIC: 4
[3]; MIC 2 μg/mL
  Cumulative percentage of isolates inhibited at MIC: 80.0%
  Number of test isolates at MIC: 2
[3]; MIC 4 μg/mL
  Cumulative percentage of isolates inhibited at MIC: 93.3%
  Number of test isolates at MIC: 2
[3]; MIC 8 μg/mL
  Cumulative percentage of isolates inhibited at MIC: 100.0%
  Number of test isolates at MIC: 1
[4]
  Mode: >8 µg/mL
[4]; Enterococcus faecalis, read-out: MIC50
  MIC50: 0.5 µg/mL (≈ 1.25 µM)
[4]; Enterococcus faecalis, read-out: MIC90
  MIC90: > 8 µg/mL
[5]
  Mode: 1 µg/mL
[5]; Staphylococcus aureus, read-out: MIC50
  MIC50: 0.12 µg/mL (≈ 0.299 µM)
[5]; Staphylococcus aureus, read-out: MIC90
  MIC90: 2 µg/mL (≈ 4.98 µM)
[6]
  MIC range: 0.06 to 8 µg/mL
[6]; read-out: MIC50
  MIC50: 0.12 µg/mL (≈ 0.299 µM)
[6]; read-out: MIC90
  MIC90: 0.5 µg/mL (≈ 1.25 µM)
[6]; modal MIC
  Mode: 0.12 µg/mL
[7]
  MIC range: 0.06 to 0.25 µg/mL
[7]; read-out: MIC50
  MIC50: 0.12 µg/mL (≈ 0.299 µM)
[7]; read-out: MIC90
  MIC90: 0.12 µg/mL (≈ 0.299 µM)
[7]; modal MIC
  Mode: 0.12 µg/mL
[8]
  MIC range: 0.06 to 8 µg/mL
[8]; Streptococcus, read-out: MIC50
  MIC50: 0.12 µg/mL (≈ 0.299 µM)
[8]; Streptococcus, read-out: MIC90
  MIC90: 4 µg/mL (≈ 9.96 µM)
[8]; modal MIC
  Mode: 0.06 µg/mL
